# In a melting point compilation (Tetko et al.; mined from patent text by program, amines drawn as free bases though some values may be those of a salt):
row,SMILES,melting point [°C]
1,COC(=O)[C@H](Cc1cccc(O)c1)NC(=O)OC(C)(C)C,61 to 65
2,CSC1=NC2=NC3=C(CN(Cc4ccccc4)CC3=O)CN2N1,245 to 247
3,CCCN(Cc1ccc(-c2ccccc2-c2nnn[nH]2)cc1)c1ncccc1C(=O)OC,146 to 147
4,COc1ccc2c(c1)CCC1(C)CC(=O)NN=C21 (centres undefined),215
5,O=C(c1c(-c2ccccc2)oc2ccccc2c1=O)N1CCN(c2ccccn2)CC1,178 to 181
6,COc1cccc2c(NCc3ccccc3C)cc(C(=O)O)nc12,276 to 277
7,COc1ccccc1C1(N[C@H](CO)c2ccccc2)C(=O)Nc2ccc(Cl)cc21 (some centres undefined),172 to 173
8,CCN1C(C(=O)OC)=C(O)c2ccc3ccccc3c2S1(=O)=O,179
9,N#CSc1cnn(-c2c(Cl)cc(C(F)(F)F)cc2Cl)c1N,137
10,O=S(=O)(Cl)C(F)(F)C(F)(F)C(F)(F)C(F)(F)C(F)(F)C(F)(F)C(F)(F)C(F)(F)F,36
11,Cc1ccc2c(C(=O)O)csc2c1,205 to 209
12,COc1cc(-c2ccccc2Cl)c(Cl)cc1C(=O)N1Cc2ccc(C(=O)O)n2Cc2ccccc21,209 to 211
13,O=C1NCCc2c1c1cccc3c1n2CC3,265 to 267
14,CCCCc1nc2cccc(COC)c2n1Cc1ccc(-c2ccccc2CO)cc1,126 to 127
15,CCOC(=O)c1sc(NC(C)=O)nc1CCl,164 to 165
16,CC(C)N(CCC(CC(=O)N1CCCCC1)(C(=O)N(C)C)c1ccccc1)C(C)C (centres undefined),142 to 145
17,CCOC(=O)c1cn(C)c2nc3cc(N4CCNC(c5ccco5)C4)c(F)cc3cc2c1=O (racemic),198 to 200
18,c1ccc(C(Sc2nnn[nH]2)c2ccccc2)cc1,132 to 134
19,Cn1c2ccc(F)cc2c(=O)n2nc(C(=O)O)cc12,295
20,Cc1cc2c(-c3cn(C)c(C(F)(F)F)cc3=O)c(F)cc(Cl)c2o1,208 to 211

row,SMILES,melting point [°C]
1,COc1cc(C2CCNCC2)ccc1Nc1ncc2ccc(N3CC(c4ccccc4)CC3=O)n2n1 (centres undefined),178 to 183
2,Cc1cc(CN=C(O)c2cc(C(O)=NCc3cc(C)c(O)c(C(C)(C)C)c3)c(C(=O)O)cc2C(=O)O)cc(C(C)(C)C)c1O,267 to 269
3,O=P(O)(O)c1ccc2ccccc2n1,200
4,Cc1cc(C)c2c(O)c3c(=O)[nH][nH]c(=O)c3nc2c1,> 395
5,CCCC1=C(C(=O)OCC)C(c2cccc3nonc23)c2c[nH]nc2N1 (centres undefined),207
6,BrCCCCOc1ccc(OCCCCBr)cc1,89 to 91
7,COc1ccc(-n2nnnc2C(F)(F)F)cc1C=O,117
8,C[N+]([O-])(c1cnccc1[N+](=O)[O-])n1cccc1 (centres undefined),135 to 140
9,COc1cc(C(=O)NS(=O)(=O)c2ccccc2)ccc1CBr,159 to 160
10,COc1cc2ncnc(N3CCC(C(C)CN4C(C)=CC(C)=NS4(=O)=O)CC3)c2cc1OC (centres undefined),169 to 172
11,CC(C)c1cccc(C(C)C)c1NC(=O)CN1CN(c2ccccc2)C2(CCCCC2)C1,151 to 153
12,CCCCc1oc2ccccc2c1-c1ncc(-c2ccc3cc(OCc4ccc(C(=O)O)cc4)ccc3c2)o1,251 to 254
13,Cc1cccc(-c2[nH]c(C(C)C)nc2-c2cccc(-c3cccs3)c2)n1,73 to 76
14,CCCCCC(=O)c1c(CBr)n(C(=O)OC)c(=O)n1C(=O)OC,71 to 73
15,NC(=O)c1cccc(-c2cccc3cc(Cc4cccc(C(F)(F)F)c4)sc23)c1,153 to 154
16,O=C(CCCCCl)NC1c2ccccc2CSc2ccccc21 (centres undefined),155 to 156
17,Cc1cc(O)c(C)c(C)c1NC=O,219 to 220
18,COc1ccc(C(=O)C=Cc2ccc(SC)cc2)cc1,112
19,O=C(O)Cc1cnc(Cc2ccc(NC(=O)c3ccc(C(F)(F)F)cc3)cc2)n2ccnc12,205 to 207
